A value given as a limit tells only on which side of the number the result lay.

The first assay deals with MCF-7 human breast adenocarcinoma cells; HRE-bla HCT116 cell line (colorectal carcinoma). As to the kind of experiment: Cell proliferation assay (ATPlite luminescence). The conditions noted are these: ATPlite readout, cell line not given. It is filed as cell-based. How it is done: MCF-7 human breast adenocarcinoma cells were obtained from ATCC (LGC Promochem). The CellSensor® HRE-bla HCT116 cell line (colorectal carcinoma) was obtained from Invitrogen.
Cells were grown under humidified 95% air, 5% CO2 at 37° C. in Dulbecco's modified Eagle's medium (DMEM: MCF-7) or McCoy's 5A medium (HRE-bla HCT116) supplemented with 10% fetal bovine serum (FBS), 100 U/ml penicillin and 100 μg/ml streptomycin, 2 mM L-glutamine, and blasticidin at 5 μg/ml as a selection marker (for the HRE-bla HCT116 cell line only).
Cell proliferation experiments were carried out in 96-well tissue culture plates with seeding of 2000 cells/well in 100 μl of the relevant medium. Cells were subsequently incubated under the conditions mentioned for 24 h prior to addition of compounds.
To determine the degree of inhibition of cell proliferation, cells were treated with ATPlite solution according to the manufacturer's instructions (PerkinElmer, ATPlite 1-step Luminescence ATP Detection Assay System) and luciferase readout measured on an Envision HTS multilabel plate reader (PerkinElmer) in luminescence mode according to established protocols. Raw data were imported into an ActivityBase database (IDBS, ID Business Solutions) and EC50 values calculated using the IDBS program ActivityBase XE.
Background: ATP-based viability assays read luminescence as a measure of living cells.
As to “N-(4′-cyano-4-methylbiphenyl-3-yl)-6-(dimethylamino)pyridine-3-sulfonamide [Example 27]”, the EC50 (in general, the concentration needed to bring the measured effect to its halfway point) was 0.5 to 1 µM.

Still in this assay, the particulars now being: Homo sapiens, ATPlite readout, cell line not given.
`COc1ccc(S(=O)(=O)Nc2cc(-c3ccc(C#N)cc3)ccc2C)cn1` [Example 4, 6-Methoxy-pyridine-3-sulfonic acid (4′-cyano-4-methyl-biphenyl-3-yl)-amide] displayed an EC50 below 0.5 µM. With `CCc1ccc(S(=O)(=O)Nc2cc(-c3ccc(C#N)cc3)ccc2C)s1` [Example 5, 5-Ethyl-thiophene-2-sulfonic acid (4′-cyano-4-methyl-biphenyl-3-yl)-amide], the concentration for a half-maximal effect (EC50) is below 0.5 µM. Still for that read-out and setting: as for `Cc1ccc(-c2ccc(C#N)s2)cc1NS(=O)(=O)c1ccco1` [Example 6, Furan-2-sulfonic acid [5-(5-cyano-thiophen-2-yl)-2-methyl-phenyl]-amide], the figure is 1 to 10 µM; as for `COc1ccc(S(=O)(=O)Nc2cc(-c3csc(C#N)c3)ccc2C)cn1` [Example 7, N-(5-(5-cyanothiophen-3-yl)-2-methylphenyl)-6-methoxypyridine-3-sulfonamide], below 0.5 µM. Take `Cc1ccc(S(=O)(=O)Nc2cc(-c3ccc(C#N)cc3)ccc2C)s1` [Example 8, N-(4′-cyano-4-methylbiphenyl-3-yl)-5-methylthiophene-2-sulfonamide]: the EC50 is below 0.5 µM. The same measure, in the same setting: the result for `Cc1ccc(-c2ccc(C#N)s2)cc1NS(=O)(=O)c1cccs1` [Example 9, N-(5-(5-cyanothiophen-2-yl)-2-methylphenyl)thiophene-2-sulfonamide] reads below 0.5 µM; that for `Cc1ccc(-c2ccc(C#N)s2)cc1NS(=O)(=O)c1ccsc1` [Example 10, N-(5-(5-cyanothiophen-2-yl)-2-methylphenyl)thiophene-3-sulfonamide], 0.5 to 1 µM. On the same count and under the same terms, the result for `Cc1ccc(-c2ccc(C#N)s2)cc1NS(=O)(=O)c1ccc(Cl)s1` [Example 11, 5-chloro-N-(5-(5-cyanothiophen-2-yl)-2-methylphenyl)thiophene-2-sulfonamide] reads 0.5 to 1 µM; that for `Cc1ccc(-c2ccc(C#N)s2)cc1NS(=O)(=O)c1cn(C)cn1` [Example 12, N-(5-(5-cyanothiophen-2-yl)-2-methylphenyl)-1-methyl-1H-imidazole-4-sulfonamide], 1 to 10 µM; that for `Cc1cc(S(=O)(=O)Nc2cc(-c3ccc(C#N)s3)ccc2C)c(C)s1` [Example 13, N-(5-(5-cyanothiophen-2-yl)-2-methylphenyl)-2,5-dimethylthiophene-3-sulfonamide], 1 to 10 µM. Still for that read-out and setting: as for `Cc1ccc(-c2ccc(C#N)s2)cc1NS(=O)(=O)c1cccnc1` [Example 14, N-(5-(5-cyanothiophen-2-yl)-2-methylphenyl)pyridine-3-sulfonamide], the figure is 1 to 10 µM; as for `Cc1ccc(-c2ccc(C#N)s2)cc1NS(=O)(=O)c1cn(C)c(C)n1` [Example 15, N-(5-(5-cyanothiophen-2-yl)-2-methylphenyl)-1,2-dimethyl-1H-imidazole-4-sulfonamide], 1 to 10 µM. Molecule `Cc1ccc(-c2ccc(C#N)s2)cc1NS(=O)(=O)c1ccc(C(F)(F)F)cn1` [Example 16, N-(5-(5-cyanothiophen-2-yl)-2-methylphenyl)-5-(trifluoromethyl)pyridine-2-sulfonamide] showed a 50% effective concentration (EC50) of 1 to 10 µM. In turn, `Cc1ccc(-c2ccc(C#N)s2)cc1NS(=O)(=O)c1c(C)noc1C` [Example 17, N-(5-(5-cyanothiophen-2-yl)-2-methylphenyl)-3,5-dimethylisoxazole-4-sulfonamide] registered an EC50 of 1 to 10 µM. Take `COc1ccc(S(=O)(=O)Nc2cc(-c3ccc(C#N)c(OC)c3)ccc2C)cn1` [Example 18, N-(4′-cyano-3′-methoxy-4-methylbiphenyl-3-yl)-6-methoxypyridine-3-sulfonamide]: the 50% effective concentration (EC50) is below 0.5 µM. Take `Cc1cc(S(=O)(=O)Nc2cc(-c3ccc(C#N)s3)ccc2C)c(C(F)(F)F)o1` [Example 19, N-(5-(5-cyanothiophen-2-yl)-2-methylphenyl)-5-methyl-2-(trifluoromethyl)furan-3-sulfonamide]: the half-maximal effective concentration (EC50) lay within 1 to 10 µM. On to `Cc1ccc(-c2ccc(C#N)cc2)cc1NS(=O)(=O)c1sccc1C` [Example 20, N-(4′-cyano-4-methylbiphenyl-3-yl)-3-methylthiophene-2-sulfonamide], for which the 50% effective concentration (EC50) lay in the range of 1 to 10 µM. `Cc1ccc(-c2ccc(C#N)cc2)cc1NS(=O)(=O)c1ccc(C#N)nc1` [Example 21, 6-cyano-N-(4′-cyano-4-methylbiphenyl-3-yl)pyridine-3-sulfonamide] gave a concentration for a half-maximal effect (EC50) of 1 to 10 µM. In turn, `Cc1cccc(S(=O)(=O)Nc2cc(-c3ccc(C#N)s3)ccc2C)n1` [Example 22, N-(5-(5-cyanothiophen-2-yl)-2-methylphenyl)-6-methylpyridine-2-sulfonamide] yielded a concentration giving a half-maximal response (EC50) of 1 to 10 µM. For the molecule `Cc1ccc(S(=O)(=O)Nc2cc(-c3ccc(C#N)cc3)ccc2C)cn1` [Example 23, N-(4′-cyano-4-methylbiphenyl-3-yl)-6-methylpyridine-3-sulfonamide], the EC50 was below 0.5 µM. On the same count and under the same terms, the result for `Cc1ccc(S(=O)(=O)Nc2cc(-c3ccc(C#N)s3)ccc2C)cn1` [Example 24, N-(5-(5-cyanothiophen-2-yl)-2-methylphenyl)-6-methylpyridine-3-sulfonamide] reads below 0.5 µM; that for `Cc1ccc(S(=O)(=O)Nc2cc(-c3ccc(C#N)s3)ccc2C)nc1` [Example 25, N-(5-(5-cyanothiophen-2-yl)-2-methylphenyl)-5-methylpyridine-2-sulfonamide], below 0.5 µM; that for `Cc1ccc(-c2ccc(C#N)cc2)cc1NS(=O)(=O)c1ccc(Cl)nc1` [Example 26, 6-chloro-N-(4′-cyano-4-methylbiphenyl-3-yl)pyridine-3-sulfonamide], below 0.5 µM. `Cc1ccc(-c2ccc(C#N)s2)cc1NS(=O)(=O)c1ccc(Cl)nc1` [Example 28, 6-chloro-N-(5-(5-cyanothiophen-2-yl)-2-methylphenyl)pyridine-3-sulfonamide] yielded a concentration for a half-maximal effect (EC50) below 0.5 µM. The molecule `Cc1ccc(-c2ccc(C#N)s2)cc1NS(=O)(=O)c1ccc(N(C)C)nc1` [Example 29, N-(5-(5-cyanothiophen-2-yl)-2-methylphenyl)-6-(dimethylamino)pyridine-3-sulfonamide] displayed an EC50 below 0.5 µM.

A further assay deals with HIF mediated transcription. Put plainly: Inhibition of activation of HIF mediated transcription under hypoxic conditions (CellSensor HRE-bla HCT-116 reporter, DFO-induced). Conditions: Homo sapiens; HRE-bla HCT-116 reporter cells, deferoxamine-induced hypoxia, 24 h. The assay is classed as cell-based. How it is done:
Inhibition of an activated HIF signaling response under chemically-induced hypoxic conditions due to compound treatment was determined using the CellSensor® […] HCT-116 stably transfected reporter cell line from Invitrogen according to the manufacturer's instructions. HIF is a transcriptional factor composed of the constitutively expressed HIF 1β subunit and one of three HIFα subunits (HIF1α, HIF2α, HIF3α). This assay is responsive towards HIFα activity in general. In one example, HIF-1, when stabilized by hypoxic conditions, upregulates several genes to promote cell survival in low-oxygen conditions. These include glycolysis enzymes, which allow ATP synthesis in an oxygen-independent manner, and vascular endothelial growth factor (VEGF), which promotes angiogenesis. HIF-1 acts by binding to HIF-responsive elements (HREs) in promoters that generally contain the sequence NCGTG.
Cells were maintained as described previously and seeded into 384-well, clear-bottom plates (Corning 3712) at 15000 cells/well in 32 μl assay medium (Opti-MEM [Invitrogen], 0.5% FBS, 100 U/ml penicillin, 100 μg/ml streptomycin, 0.1 mM non-essential amino acids [NEAA], 1 mM sodium pyruvate, 5 mM HEPES [pH 7.3]). Following a 2 h incubation period, compounds (4 μl) were subsequently added to the cells at 10× concentrations in 5% DMSO and incubated under normal conditions for 30 min. To induce hypoxic conditions, 4 μl of a 2 mM deferoxamine (DFO) solution was added to the cells followed by 24 h incubation under standard assay conditions (as described). Control wells included wells containing only medium (no cells) and wells treated with 0.5% DMSO instead of compound.
Prior to the readout, the Substrate Loading Solution was prepared as described in the manufacturer's protocol and 10 μl added to each well. Following a further 2 h incubation period at room temperature and in the dark, fluorescence was measured at two wavelengths (blue channel: ex. 409 nm, em. 460 nm; green channel: ex. 409 nm, em. 530 nm) on a PerkinElmer Envision HTS. For the analysis, the average signal of the cell-free wells at 460 nm and 530 nm was first subtracted from the blue and green channel data, respectively. The blue/green emission ratios were then calculated for each well, dividing the background-corrected blue emission values by the background-corrected green emission values. IC50 values were determined from these ratios using GraphPad Prism (Prism 5, GraphPad software, Inc.).
In the case of `COc1ccc(S(=O)(=O)Nc2cc(-c3csc(C#N)c3)ccc2C)cn1` [Example 7, N-(5-(5-cyanothiophen-3-yl)-2-methylphenyl)-6-methoxypyridine-3-sulfonamide], the EC50 is below 0.5 µM. Molecule `Cc1ccc(S(=O)(=O)Nc2cc(-c3ccc(C#N)cc3)ccc2C)s1` [Example 8, N-(4′-cyano-4-methylbiphenyl-3-yl)-5-methylthiophene-2-sulfonamide] came in with an EC50 below 0.5 µM. The molecule `COc1ccc(S(=O)(=O)Nc2cc(-c3ccc(C#N)c(OC)c3)ccc2C)cn1` [Example 18, N-(4′-cyano-3′-methoxy-4-methylbiphenyl-3-yl)-6-methoxypyridine-3-sulfonamide] yielded a 50% effective concentration (EC50) below 0.5 µM. Regarding `Cc1ccc(S(=O)(=O)Nc2cc(-c3ccc(C#N)cc3)ccc2C)cn1` [Example 23, N-(4′-cyano-4-methylbiphenyl-3-yl)-6-methylpyridine-3-sulfonamide], the EC50 was below 0.5 µM. The molecule `Cc1ccc(S(=O)(=O)Nc2cc(-c3ccc(C#N)s3)ccc2C)cn1` [Example 24, N-(5-(5-cyanothiophen-2-yl)-2-methylphenyl)-6-methylpyridine-3-sulfonamide] had an EC50 below 0.5 µM.
